In PubChem BioAssay AID1259407 (Chemical Carcinogenesis Research Information System (CCRIS), 2018):
The source made the active and inactive calls. How the calls were made is not given here.

System: CCRIS mutagenicity, Ames/micronucleus/aberration tests
Test: CCRIS mutagenicity studies
[1] = Test System: AMES SALMONELLA TYPHIMURIUM, Strain/Indicator: TA98, Metabolic Activation: NONE, Method: PREINCUBATION
[2] = Test System: AMES SALMONELLA TYPHIMURIUM, Strain/Indicator: TA98, Metabolic Activation: NONE, Method: STANDARD PLATE
[3] = Test System: AMES SALMONELLA TYPHIMURIUM, Strain/Indicator: TA100, Metabolic Activation: NONE, Method: STANDARD PLATE

**Q.** With `Cc1oc(=O)oc1CN1CCN(c2cc3c(cc2F)c(=O)c(C(=O)O)c2n3C(C)S2)CC1` (stereo unspecified) as the compound, how does the mutagenic call [1] read?
**A.** inactive; negative

**Q.** And the mutagenic call (Test System: AMES SALMONELLA TYPHIMURIUM, Strain/Indicator: TA98, Metabolic Activation: RAT, LIVER, S-9, PHENOBARBITAL AND 5,6-BENZOFLAVONE, Method: PREINCUBATION)?
**A.** inactive; negative

**Q.** What about the mutagenic call (Test System: AMES SALMONELLA TYPHIMURIUM, Strain/Indicator: TA100, Metabolic Activation: NONE, Method: PREINCUBATION) of the same compound?
**A.** inactive; negative

**Q.** And the mutagenic call (Test System: AMES SALMONELLA TYPHIMURIUM, Strain/Indicator: TA100, Metabolic Activation: RAT, LIVER, S-9, PHENOBARBITAL AND 5,6-BENZOFLAVONE, Method: PREINCUBATION)?
**A.** inactive; negative

**Q.** And the mutagenic call (Test System: AMES SALMONELLA TYPHIMURIUM, Strain/Indicator: TA1535, Metabolic Activation: NONE, Method: PREINCUBATION)?
**A.** inactive; negative

**Q.** What about the mutagenic call (Test System: AMES SALMONELLA TYPHIMURIUM, Strain/Indicator: TA1535, Metabolic Activation: RAT, LIVER, S-9, PHENOBARBITAL AND 5,6-BENZOFLAVONE, Method: PREINCUBATION) of the same compound?
**A.** inactive; negative

**Q.** What about the mutagenic call (Test System: AMES SALMONELLA TYPHIMURIUM, Strain/Indicator: TA1537, Metabolic Activation: NONE, Method: PREINCUBATION) of the same compound?
**A.** inactive; negative

**Q.** What about the mutagenic call (Test System: AMES SALMONELLA TYPHIMURIUM, Strain/Indicator: TA1537, Metabolic Activation: RAT, LIVER, S-9, PHENOBARBITAL AND 5,6-BENZOFLAVONE, Method: PREINCUBATION) of the same compound?
**A.** inactive; negative

**Q.** And the mutagenic call (Test System: E. COLI, Strain/Indicator: WP2 UVRA, Metabolic Activation: NONE, Method: PREINCUBATION)?
**A.** inactive; negative

**Q.** And the mutagenic call (Test System: E. COLI, Strain/Indicator: WP2 UVRA, Metabolic Activation: RAT, LIVER, S-9, PHENOBARBITAL AND 5,6-BENZOFLAVONE, Method: PREINCUBATION)?
**A.** inactive; negative

**Q.** Which mutagenic call (Test System: AMES SALMONELLA TYPHIMURIUM, Strain/Indicator: TA98, Metabolic Activation: NONE, Method: PREINCUBATION, LIQUID INCUBATION) does the source give for `CC(C)=C(Cl)C=O` here?
**A.** inactive; negative

**Q.** What about the mutagenic call (Test System: AMES SALMONELLA TYPHIMURIUM, Strain/Indicator: TA100, Metabolic Activation: NONE, Method: LIQUID INCUBATION) of the same compound?
**A.** active; positive

**Q.** And the mutagenic call (Test System: AMES SALMONELLA TYPHIMURIUM, Strain/Indicator: TA100, Metabolic Activation: NONE, Method: PREINCUBATION, LIQUID INCUBATION)?
**A.** active; positive

**Q.** And the mutagenic call (Test System: AMES SALMONELLA TYPHIMURIUM, Strain/Indicator: TA1538, Metabolic Activation: NONE, Method: PREINCUBATION, LIQUID INCUBATION)?
**A.** inactive; negative

**Q.** `O=[N+]([O-])C(Cl)Br` (stereo unspecified) was tested. Which mutagenic call (Test System: Ames Salmonella typhimurium, Strain/Indicator: RSJ100, Metabolic Activation: None, Method: Standard plate) did it give?
**A.** active; positive (weak)

**Q.** What about the mutagenic call (Test System: Ames Salmonella typhimurium, Strain/Indicator: RSJ100, Metabolic Activation: Rat, Liver, S-9, Aroclor, Method: Standard plate) of the same compound?
**A.** inactive; negative

**Q.** What about the mutagenic call (Test System: Ames Salmonella typhimurium, Strain/Indicator: TA98, Metabolic Activation: None, Method: Standard plate) of the same compound?
**A.** active; positive (weak)

**Q.** And the mutagenic call (Test System: Ames Salmonella typhimurium, Strain/Indicator: TA98, Metabolic Activation: Rat, Liver, S-9, Aroclor, Method: Standard plate)?
**A.** inactive; negative

**Q.** And the mutagenic call (Test System: Ames Salmonella typhimurium, Strain/Indicator: TA100, Metabolic Activation: None, Method: Standard plate)?
**A.** inactive; negative

**Q.** And the mutagenic call (Test System: Ames Salmonella typhimurium, Strain/Indicator: TA100, Metabolic Activation: Rat, Liver, S-9, Aroclor, Method: Standard plate)?
**A.** active; positive

**Q.** And the mutagenic call (Test System: Ames Salmonella typhimurium, Strain/Indicator: TA104, Metabolic Activation: None, Method: Standard plate)?
**A.** inactive; negative

**Q.** What about the mutagenic call (Test System: Ames Salmonella typhimurium, Strain/Indicator: TA104, Metabolic Activation: Rat, Liver, S-9, Aroclor, Method: Standard plate) of the same compound?
**A.** inactive; negative

**Q.** And the mutagenic call (Test System: Ames Salmonella typhimurium, Strain/Indicator: TPT100, Metabolic Activation: None, Method: Standard plate)?
**A.** inactive; negative

**Q.** With `CCCCC(CC)COC(=O)c1ccc(C(=O)OCC(CC)CCCC)cc1` (stereo unspecified) as the compound, how does the mutagenic call [2] read?
**A.** inactive; negative

**Q.** And the mutagenic call (Test System: AMES SALMONELLA TYPHIMURIUM, Strain/Indicator: TA98, Metabolic Activation: RAT, LIVER, S-9, Method: STANDARD PLATE)?
**A.** inactive; negative

**Q.** What about the mutagenic call [3] of the same compound?
**A.** inactive; negative

**Q.** And the mutagenic call (Test System: AMES SALMONELLA TYPHIMURIUM, Strain/Indicator: TA100, Metabolic Activation: RAT, LIVER, S-9, Method: STANDARD PLATE)?
**A.** inactive; negative

**Q.** And the mutagenic call (Test System: AMES SALMONELLA TYPHIMURIUM, Strain/Indicator: TA1535, Metabolic Activation: NONE, Method: STANDARD PLATE)?
**A.** inactive; negative

**Q.** What about the mutagenic call (Test System: AMES SALMONELLA TYPHIMURIUM, Strain/Indicator: TA1535, Metabolic Activation: RAT, LIVER, S-9, Method: STANDARD PLATE) of the same compound?
**A.** inactive; negative

**Q.** What about the mutagenic call (Test System: AMES SALMONELLA TYPHIMURIUM, Strain/Indicator: TA1537, Metabolic Activation: NONE, Method: STANDARD PLATE) of the same compound?
**A.** inactive; negative

**Q.** What about the mutagenic call (Test System: AMES SALMONELLA TYPHIMURIUM, Strain/Indicator: TA1537, Metabolic Activation: RAT, LIVER, S-9, Method: STANDARD PLATE) of the same compound?
**A.** inactive; negative

**Q.** What about the mutagenic call (Test System: AMES SALMONELLA TYPHIMURIUM, Strain/Indicator: TA1538, Metabolic Activation: NONE, Method: STANDARD PLATE) of the same compound?
**A.** inactive; negative

**Q.** And the mutagenic call (Test System: AMES SALMONELLA TYPHIMURIUM, Strain/Indicator: TA1538, Metabolic Activation: RAT, LIVER, S-9, Method: STANDARD PLATE)?
**A.** inactive; negative

**Q.** And the mutagenic call (Test System: CHINESE HAMSTER OVARY, Strain/Indicator: CHO-K1-BH4 (HGPRT)/6-THIOGUANINE, Metabolic Activation: NONE)?
**A.** inactive; negative

**Q.** And the mutagenic call (Test System: CHINESE HAMSTER OVARY, Strain/Indicator: CHO-K1-BH4 (HGPRT)/6-THIOGUANINE, Metabolic Activation: RAT, LIVER, S-9)?
**A.** inactive; negative

**Q.** With `Cc1nc2c(c3[nH]c4ccccc4c13)C(=O)C(N1CCN(C)CC1)=CC2=O` as the compound, how does the mutagenic call (Test System: AMES SALMONELLA TYPHIMURIUM, Strain/Indicator: TA97, Metabolic Activation: NONE, Method: STANDARD PLATE) read?
**A.** inactive; negative

**Q.** And the mutagenic call (Test System: AMES SALMONELLA TYPHIMURIUM, Strain/Indicator: TA97, Metabolic Activation: RAT, LIVER, S-9, AROCLOR 1254, Method: STANDARD PLATE)?
**A.** inactive; negative

**Q.** And the mutagenic call [2]?
**A.** inactive; negative

**Q.** What about the mutagenic call (Test System: AMES SALMONELLA TYPHIMURIUM, Strain/Indicator: TA98, Metabolic Activation: RAT, LIVER, S-9, AROCLOR 1254, Method: STANDARD PLATE) of the same compound?
**A.** inactive; negative

**Q.** What about the mutagenic call [3] of the same compound?
**A.** active; positive

**Q.** What about the mutagenic call (Test System: AMES SALMONELLA TYPHIMURIUM, Strain/Indicator: TA100, Metabolic Activation: RAT, LIVER, S-9, AROCLOR 1254, Method: STANDARD PLATE) of the same compound?
**A.** inactive; negative

**Q.** And the mutagenic call (Test System: AMES SALMONELLA TYPHIMURIUM, Strain/Indicator: TA102, Metabolic Activation: NONE, Method: STANDARD PLATE)?
**A.** inactive; negative

**Q.** And the mutagenic call (Test System: AMES SALMONELLA TYPHIMURIUM, Strain/Indicator: TA102, Metabolic Activation: RAT, LIVER, S-9, AROCLOR 1254, Method: STANDARD PLATE)?
**A.** inactive; negative

**Q.** With `O=[N+]([O-])c1cccc(Br)c1` as the compound, how does the mutagenic call [1] read?
**A.** inactive; negative

**Q.** What about the mutagenic call (Test System: AMES SALMONELLA TYPHIMURIUM, Strain/Indicator: TA98, Metabolic Activation: RAT, LIVER, S-9, KANECHLOR 500, Method: PREINCUBATION) of the same compound?
**A.** inactive; negative

**Q.** And the mutagenic call (Test System: AMES SALMONELLA TYPHIMURIUM, Strain/Indicator: TA100, Metabolic Activation: RAT, LIVER, S-9, KANECHLOR 500, Method: PREINCUBATION)?
**A.** active; positive
